Results: publication PMC6832257, “Design, Synthesis and Evaluation of New Indolylpyrimidylpiperazines for Gastrointestinal Cancer Therapy” (Molecules, 2019)
Read-outs that look alike come from different tables or passages of the source. One block for each compound: values may come before it.

Experiments:
[1] = molecular target: T1, hA3AR (Homo sapiens, UniProt P0DMS8); test: TGFα shedding assay at hA3AR; assay type: cell-based; settings: for Emax: HEK293 cells; for EC50: hA3AR-expressing HEK293 cells
T1 construct: expressed in transfected cells; host or cells: HEK293
T1 sequence (P0DMS8 1-318): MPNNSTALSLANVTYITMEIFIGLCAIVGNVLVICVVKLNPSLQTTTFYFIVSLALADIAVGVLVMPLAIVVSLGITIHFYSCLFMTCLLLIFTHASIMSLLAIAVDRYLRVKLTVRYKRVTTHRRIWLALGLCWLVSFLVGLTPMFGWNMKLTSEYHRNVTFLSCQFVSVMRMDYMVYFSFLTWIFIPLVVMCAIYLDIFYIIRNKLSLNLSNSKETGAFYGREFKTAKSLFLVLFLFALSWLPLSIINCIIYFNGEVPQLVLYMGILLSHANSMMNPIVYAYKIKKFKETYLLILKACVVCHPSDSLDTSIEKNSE
Description: This recently-developed assay utilizes an alkaline phosphatase-TGFα fusion protein reporter system to quantitatively evaluate specific GPCR-mediated G protein activation (shown in Figure 3) of test compounds [22].
Expression vectors (250 ng of AP-TGFα plasmid, 100 ng of hA2AAR/hA3AR plasmid and 50 ng of Gα protein) were transfected into HEK293 cells using Lipofectamine 2000 (1.25 μL/well) in 12-well plates. Transfection of siRNA (final concentration: 10 nM) was conducted with Lipofectamine RNAiMAX (1 μL/well), 48 h before assay to prevent interference from other signaling pathways. Transfected cells were detached with brief treatment with phosphate-buffered saline (PBS) containing 0.05% trypsin and 0.52 mM ethylenediaminetetraacetic acid (EDTA). The cell suspension was pelleted via centrifugation (190 g, 5 min). Trypsin was removed from the cells via resuspension in PBS, followed by 5 min of incubation at room temperature. Cells were subsequently pelleted with centrifugation (190 g, 5 min) and resuspended in Hank’s Balanced Salt Solution (HBSS) containing 5 mM 4-(2-hydroxyethyl)-1-piperazineethanesulfonic acid (HEPES) (pH 7.4). Resuspended cells were plated in 90 μL/well in 96-well plate and incubated at 37 °C in 5% CO2 for 30 min. 10 μL of 10X concentration of compounds were added and incubated for 1 h at 37 °C in 5% CO2. Plates were centrifuged at 190 g for 2 min. […] per well of conditioned medium (10 mM p-NPP, 40 mM Tris-HCl (pH 9.5), 40 mM NaCl & 10 mM MgCl2) was transferred into a conditioned medium plate and 80 µL per well of conditioned medium was added to the test compound plate. Absorbance at 405 nm (OD405) of both plates was read before and after a 1-h incubation at 37 °C using a microplate reader.

[2] = molecular target: hA1; settings: cited from earlier work
[3] = molecular target: T2, hA2AAR (Homo sapiens, UniProt P29274); settings: ratio of binding affinities; cited from earlier work
T2 construct: expressed in transfected cells; host or cells: HEK293

[4] = molecular target: hA2B; settings: cited from earlier work
[5] = molecular target: T1, hA3AR; settings: read-out: Ki hA3; cited from earlier work
[6] = tested on: HCT-116 cell line; test: MTT cytotoxicity assay, HCT-116; assay type: cell-based; settings: Homo sapiens; HCT-116, MTT, 72 h
Description: (§1) Human colorectal carcinoma cell lines, HCT-116 and Caco-2, were used as models for colorectal cancer cells overexpressing hA3AR. Human normal colon cell line CCD-18Co was used as a model for normal colon cells that express normal levels of hA3AR. The HCT-116, Caco-2 and CCD-18Co cell lines were all cultured in accordance with the ATCC protocols.
(§2) The cytotoxicity of compound 4 was determined by 3-(4,5-dimethylthiazol-2-yl)-2,5-diphenyltetrazolium bromide (MTT) assay. The cells were harvested from culture flasks by trypsinisation and seeded into 96-well microculture plates (Costar, Corning, USA) at the seeding density of 6000 cells per well or 10,000 per well (CCD18Co). After the cells were allowed to resume exponential growth for 24 h, they were exposed to compound 4 or 2-Cl-IB-MECA in media for 72 h. The drugs were diluted in complete medium at the desired concentration, and 100 μL of the drug solution was added to each well and serially diluted to other wells. After exposure for 72 h, drug solutions were replaced with 100 μL of MTT in complete media (5 mg ml^−1) and incubated for an additional 1 h. Subsequently, the medium was aspirated and the purple formazan crystals formed in viable cells were dissolved in 100 μL of dimethyl sulfoxide (DMSO) per well. Optical densities were measured at 570 nm with a microplate reader. […]

[7] = tested on: Caco-2 cell line; test: MTT cytotoxicity assay, Caco-2; assay type: cell-based; settings: Homo sapiens; Caco-2, MTT, 72 h
Description: as §1, §2

[8] = tested on: HepG2 cell line; test: MTT cytotoxicity assay, HepG2; assay type: cell-based; settings: Homo sapiens, 72 h
Description: The HepG2 cell line was also cultured in accordance with the ATCC protocol.
as §2, with “reader. The quantity of viable cells was expressed in terms of treated/control (T/C) values by comparison to untreated control cells, and 50% inhibitory concentrations (IC50) were calculated from concentration-effect curves by interpolation using GraphPad Prism (Version 5.0, GraphPad Software, USA).” for “reader.”

[9] = molecular target: T1, hA3AR; settings: cited from earlier work
[10] = tested on: CCD-18Co cell line; test: MTT cytotoxicity assay, CCD-18Co; assay type: cell-based; settings: Homo sapiens, CCD-18Co normal colon cell line, 72 h
Description: as §1, §2

[11] = UV-vis stability assay; assay type: physicochemical; settings: 50 μM in water, RPMI-1640 and DMEM culture medium over 72 h
Description: Stock solution of 50 μM of compound 4 was prepared in DMSO. Two quartz cuvettes were soaked in 70% ethanol in water for 1h. The quartz cuvettes were subsequently left to dry in a biological safety cabinet. When both quartz cuvettes were dry, the quartz cuvettes, i.e., sample cuvette and blank cuvette, were filled with water or culture media (RPMI-1640 or DMEM) and parafilmed before being transferred into a UV-vis spectrophotometer (USA). The UV-vis spectrophotometer was auto-zeroed and the background was scanned from wavelengths of 200 nm to 800 nm. The sample cuvette was removed from the UV-vis spectrophotometer and transferred into the biological safety cabinet. Compound 4 was dissolved at a final concentration of 50 μM in 1.5 mL of water, RPMI or DMEM containing 10% FBS (without phenol red). The UV−vis profiles of the samples were monitored using UV-vis over 72 h at 1 h intervals from 200 to 800 nm.

[12] = tested on: human colon carcinoma patients; settings: phase II; cited from earlier work
[13] = HEK293, efficacy as compared to adenosine, read-out: Emax

T2 sequence (P29274 whole entry): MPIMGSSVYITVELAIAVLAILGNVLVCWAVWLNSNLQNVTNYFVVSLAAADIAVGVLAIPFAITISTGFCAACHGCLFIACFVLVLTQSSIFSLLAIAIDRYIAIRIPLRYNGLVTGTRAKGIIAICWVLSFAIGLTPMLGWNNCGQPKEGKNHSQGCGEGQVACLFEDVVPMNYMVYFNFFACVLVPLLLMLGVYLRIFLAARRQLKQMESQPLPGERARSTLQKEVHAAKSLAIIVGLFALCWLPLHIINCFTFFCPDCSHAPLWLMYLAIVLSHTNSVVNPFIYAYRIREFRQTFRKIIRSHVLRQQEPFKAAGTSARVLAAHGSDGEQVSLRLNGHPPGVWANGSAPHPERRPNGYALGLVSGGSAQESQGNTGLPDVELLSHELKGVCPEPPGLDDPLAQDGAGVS

Compound: Cc1cc(C)nc(N2CCN(C(=O)Cc3c(C)[nH]c4ccccc34)CC2)n1 [Compound 1, indolylpyrimidylpiperazine (IPP)]
Ki [2]: > 100 µM
selectivity hA2AAR/hA3AR [3]: > 12
Ki [4]: > 20 µM
Ki [5]: > 100 µM

Compound: Cc1cc(C)nc(N2CCN(CCc3c(C)[nH]c4ccccc34)CC2)n1 [Compound 2, decarbonyl IPP]
Ki [2]: > 100 µM
Ki [4]: > 20 µM

Compound: CNC(=O)[C@H]1O[C@@H](n2cnc3c(NCc4cccc(I)c4)nc(Cl)nc32)[C@H](O)[C@@H]1O [Compound 2-Cl-IB-MECA, 2-Cl-IB-MECA, reference compound]
IC50 [6]: 21 ± 6 µM
IC50 [7]: 31 ± 4 µM
IC50 [8]: 13 ± 3 µM
β-arrestin translocation response [9]: 102 ± 13%

Compound: CNC(=O)[C@H]1O[C@@H](n2cnc3c(NCc4cccc(I)c4)ncnc32)[C@H](O)[C@@H]1O [IB-MECA]
β-arrestin translocation response [9]: 100 ± 7%
disease stabilization, share of patients [12]: 35%

Compound: OC[C@H]1O[C@@H](n2cnc3c(NCc4cccc(I)c4)ncnc32)[C@H](O)[C@@H]1O [MRS541]
β-arrestin translocation response [9]: 30.8 ± 1.6%

Continued, in another order:

Emax [1, 13]: 100%
Compound: Nc1ncnc2c1ncn2[C@@H]1O[C@H](CO)[C@@H](O)[C@H]1O [Adenosine, reference compound]

EC50 [1]: essentially inactive
melting point: 165 °C (dec.)
Compound: Cc1cc(C)nc(N2CCN(CC(=O)c3c[nH]c4ccccc34)CC2)n1 [Compound 3, 2-(4-(4,6-Dimethylpyrimidin-2-yl)piperazin-1-yl)-1-(1H-indol-3-yl)ethanone]

Emax [1, 13]: 30%
Emax ([1]; efficacy as compared to adenosine): 31%
EC50 ([1]; read-out: EC50): 2.89 ± 0.55 µM
Stability (UV-vis) [11]: excellent stability
melting point: 162 °C (dec.)
Compound: COc1cccc2c(C(=O)CN3CCN(c4nc(C)cc(C)n4)CC3)c[nH]c12 [Compound 4, 2-(4-(4,6-Dimethylpyrimidin-2-yl)piperazin-1-yl)-1-(7-methoxy-1H-indol-3-yl)ethanone]
IC50 [6]: 84 ± 9 µM
IC50 [7]: 77 ± 10 µM
IC50 [10]: 176 ± 48 µM
IC50 [8]: 30 ± 7 µM

Emax [1, 13]: 77%
EC50 ([1]; read-out: EC50): 13.4 ± 2.96 µM
melting point: 163 °C (dec.)
Compound: Cc1cc(C)nc(N2CCN(CC(=O)c3c[nH]c4c(Cl)cccc34)CC2)n1 [Compound 5, 2-(4-(4,6-Dimethylpyrimidin-2-yl)piperazin-1-yl)-1-(7-chloro-1H-indol-3-yl)ethanone]

Emax [1, 13]: 72%
EC50 ([1]; read-out: EC50): 33.2 ± 16.5 µM
melting point: 165 °C (dec.)
Compound: Cc1cc(C)nc(N2CCN(CC(=O)c3c[nH]c4c([N+](=O)[O-])cccc34)CC2)n1 [Compound 6, 2-(4-(4,6-Dimethylpyrimidin-2-yl)piperazin-1-yl)-1-(7-nitro-1H-indol-3-yl)ethanone]
